Assay results taken from patent US10913727B2, “Modulators of the integrated stress pathway” (Calico Life Sciences LLC, priority 2016, dated 2021).

Test system: HEK293T cells carrying the ATF4 luciferase reporter
Assay: ATF4-Luc assay, in vitro model of Vanishing Cell White Matter Disease (VWMD)
Assay type: cell-based
Conditions: Homo sapiens, HEK-293T, 1 μg/mL tunicamycin, 7 hours, One Glo luminescence
In short: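 Reporter cells were stably generated by retroviral transduction and puromycin selection, then seeded at 30,000 cells/well. Next day, cells received 1 μg/mL tunicamycin with 200 nM test compound for 7 h, and luciferase luminescence was read with a one-step reagent. Values reported as EC50.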

**Q.** With `O=C(COc1ccc(Cl)c(F)c1)NC12CC(NC(=O)c3ccc(CO)nc3)(C1)C2` [Compound 718, N-{3-[2-(4-chloro-3-fluorophenoxy)acetamido]bicyclo[1.1.1]pentan-1-yl}-6-(hydroxymethyl)pyridine-3-carboxamide] as the molecule, how does the EC50 read?
**A.** Its EC50 is 250 to 1000 nM.

**Q.** For `O=C(COc1ccc(Cl)c(F)c1)NC12CCC(NC(=O)c3ccc(OC(F)(F)F)cn3)(CC1)CC2O` (stereo not shown) [Compound 480, N-{4-[2-(4-chloro-3-fluorophenoxy)acetamido]-3-hydroxybicyclo[2.2.2]octan-1-yl}-5-(trifluoromethoxy)pyridine-2-carboxamide], which EC50 is on record?
**A.** The EC50 was under 50 nM.

**Q.** With `O=C(COc1ccc(Cl)c(F)c1)NC12CCC(NC(=O)c3cn4cc(F)ccc4n3)(CC1)CC2O` (stereo not shown) [Compound 600, N-{4-[2-(4-chloro-3-fluorophenoxy)acetamido]-3-hydroxybicyclo[2.2.2]octan-1-yl}-6-fluoroimidazo[1,2-a]pyridine-2-carboxamide] as the molecule, how does the EC50 read?
**A.** The EC50 was 250 to 1000 nM.

**Q.** `O=C(COc1ccc(Cl)c(F)c1)NC12CC(NC(=O)c3cnc4[nH]ncc4c3)(C1)C2` [Compound 608, N-{3-[2-(4-chloro-3-fluorophenoxy)acetamido]bicyclo[1.1.1]pentan-1-yl}-1H-pyrazolo[3,4-b]pyridine-5-carboxamide] was tested. Which EC50 did it give?
**A.** The EC50 was 50 to 250 nM.

**Q.** `N#Cc1ccc(C(=O)NC23CCC(NC(=O)COc4ccc(Cl)c(F)c4)(CC2)C(O)C3)nc1` (stereo not shown) [Compound 937, N-{4-[2-(4-chloro-3-fluorophenoxy)acetamido]-3-hydroxybicyclo[2.2.2]octan-1-yl}-5-cyanopyridine-2-carboxamide] was tested. Which EC50 did it give?
**A.** The EC50 was under 50 nM.

**Q.** How did the EC50 turn out when `O=C(COc1ccc(Cl)c(F)c1)NC12CC(NC(=O)c3cnc(C(F)(F)F)cn3)(C1)C2` [Compound 115, N-{3-[2-(4-chloro-3-fluorophenoxy)acetamido]bicyclo[1.1.1]pentan-1-yl}-5-(trifluoromethyl)pyrazine-2-carboxamide] was run?
**A.** Its EC50 is 1000 to 2000 nM.

**Q.** How did the EC50 turn out when `O=C(COc1ccc(Cl)c(F)c1)NC12CC(NC(=O)c3cncc(CO)c3)(C1)C2` [Compound 453, N-{3-[2-(4-chloro-3-fluorophenoxy)acetamido]bicyclo[1.1.1]pentan-1-yl}-5-(hydroxymethyl)pyridine-3-carboxamide] was run?
**A.** The EC50 was 1000 to 2000 nM.

**Q.** With `O=C(COc1ccc(Cl)c(F)c1)NC12CCC(NC(=O)c3cncs3)(CC1)C(O)C2` (stereo not shown) [Compound 213, N-{4-[2-(4-chloro-3-fluorophenoxy)acetamido]-2-hydroxybicyclo[2.2.2]octan-1-yl}-1,3-thiazole-5-carboxamide] as the molecule, how does the EC50 read?
**A.** Its EC50 is 250 to 1000 nM.

**Q.** `O=C(COc1ccc(Cl)c(F)c1)NC12CCC(NC(=O)c3ccns3)(CC1)C[C@@H]2O` [Compound 683, N-{(3S)-4-[2-(4-chloro-3-fluorophenoxy)acetamido]-3-hydroxybicyclo[2.2.2]octan-1-yl}-1,2-thiazole-5-carboxamide] was tested. Which EC50 did it give?
**A.** Its EC50 is under 50 nM.

**Q.** For `O=C(COc1ccc(Cl)c(F)c1)NC12CC(NC(=O)c3cccc(CO)c3)(C1)C2` [Compound 419, N-{3-[2-(4-chloro-3-fluorophenoxy)acetamido]bicyclo[1.1.1]pentan-1-yl}-3-(hydroxymethyl)benzamide], which EC50 is on record?
**A.** Its EC50 is 250 to 1000 nM.

**Q.** How did the EC50 turn out when `COc1cnc(C(=O)NC23CC(NC(=O)COc4ccc(Cl)c(F)c4)(C2)C3)cn1` [Compound 124, N-{3-[2-(4-chloro-3-fluorophenoxy)acetamido]bicyclo[1.1.1]pentan-1-yl}-5-methoxypyrazine-2-carboxamide] was run?
**A.** The EC50 was 1000 to 2000 nM.

**Q.** With `CCCc1cnc(C(=O)NC23CC(NC(=O)COc4ccc(Cl)c(F)c4)(C2)C3)cn1` [Compound 334, N-{3-[2-(4-chloro-3-fluorophenoxy)acetamido]bicyclo[1.1.1]pentan-1-yl}-5-propylpyrazine-2-carboxamide] as the molecule, how does the EC50 read?
**A.** The EC50 was under 50 nM.

**Q.** `COc1cncc(C(=O)NC23CC(NC(=O)COc4ccc(Cl)c(F)c4)(C2)C3)c1` [Compound 790, N-{3-[2-(4-chloro-3-fluorophenoxy)acetamido]bicyclo[1.1.1]pentan-1-yl}-5-methoxypyridine-3-carboxamide] was tested. Which EC50 did it give?
**A.** The EC50 was 50 to 250 nM.
